PubChem BioAssay (NCI)
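These data come from cells grown in 96-well plates and exposed to compound for 48 hours at five concentrations. At the TGI there is no net growth.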

Legend:
Experiment in all cases: DTP human tumour cell line panel, 48 h
MALME-3M melanoma = system: MALME-3M melanoma
A498 renal = system: A498 renal
RPMI-8226 leukemia = system: RPMI-8226 leukemia
SNB-19 CNS = system: SNB-19 CNS
T-47D breast = system: T-47D breast
SF-539 CNS = system: SF-539 CNS
SR leukemia = system: SR leukemia
NCI-H522 lung = system: NCI-H522 lung
LOX IMVI melanoma = system: LOX IMVI melanoma
SK-MEL-28 melanoma = system: SK-MEL-28 melanoma
SNB-75 CNS = system: SNB-75 CNS
BT-549 breast = system: BT-549 breast
IGROV1 ovarian = system: IGROV1 ovarian
OVCAR-5 ovarian = system: OVCAR-5 ovarian
786-0 renal = system: 786-0 renal
UACC-62 melanoma = system: UACC-62 melanoma
TK-10 renal = system: TK-10 renal
HT29 colon = system: HT29 colon
SK-MEL-2 melanoma = system: SK-MEL-2 melanoma
UACC-257 melanoma = system: UACC-257 melanoma
CCRF-CEM leukemia = system: CCRF-CEM leukemia
M14 melanoma = system: M14 melanoma
KM12 colon = system: KM12 colon
HCT-15 colon = system: HCT-15 colon
NCI-H23 lung = system: NCI-H23 lung
COLO 205 colon = system: COLO 205 colon
ACHN renal = system: ACHN renal
HL-60(TB) leukemia = system: HL-60(TB) leukemia
RXF 393 renal = system: RXF 393 renal
NCI-H226 lung = system: NCI-H226 lung
PC-3 prostate = system: PC-3 prostate
SF-295 CNS = system: SF-295 CNS
OVCAR-3 ovarian = system: OVCAR-3 ovarian
SN12C renal = system: SN12C renal
HOP-62 NSCLC = system: HOP-62 NSCLC
K-562 leukemia = system: K-562 leukemia
SF-268 CNS = system: SF-268 CNS
UO-31 renal = system: UO-31 renal
HS 578T breast = system: HS 578T breast
DU-145 prostate = system: DU-145 prostate
OVCAR-8 ovarian = system: OVCAR-8 ovarian
SK-MEL-5 melanoma = system: SK-MEL-5 melanoma
U251 CNS = system: U251 CNS
HOP-92 NSCLC = system: HOP-92 NSCLC
NCI/ADR-RES ovarian = system: NCI/ADR-RES ovarian
EKVX NSCLC = system: EKVX NSCLC
NCI-H460 lung = system: NCI-H460 lung
OVCAR-4 ovarian = system: OVCAR-4 ovarian
SW-620 colon = system: SW-620 colon
MDA-MB-435 = system: MDA-MB-435
HCT-116 colon = system: HCT-116 colon
MDA-MB-231 breast = system: MDA-MB-231 breast
SK-OV-3 ovarian = system: SK-OV-3 ovarian
MOLT-4 leukemia = system: MOLT-4 leukemia
CAKI-1 renal = system: CAKI-1 renal
MDA-N = system: MDA-N
MCF7 breast = system: MCF7 breast
A549 NSCLC = system: A549 NSCLC

Nc1cc2c(nc3c4ccccc4c(N)cc3[n+]2-c2cccc3ccccc23)c2ccccc12 (tested in a mixture with another compound) showed a TGI (MALME-3M melanoma) of 4.14 µM, a TGI (A498 renal) of 16.9 µM and a TGI (RPMI-8226 leukemia) of 0.851 µM. The TGI (SNB-19 CNS) was 20.2 µM, the TGI (T-47D breast) was 16.1 µM and the TGI (SF-539 CNS) was 23.8 µM. The TGI (SR leukemia) was 3.56 µM, the TGI (NCI-H522 lung) was 7.77 µM and the TGI (LOX IMVI melanoma) was 7.3 µM. For the same compound, the TGI (SK-MEL-28 melanoma) was 20 µM, the TGI (SNB-75 CNS) was 10.6 µM and the TGI (BT-549 breast) was 16.3 µM. For the same compound, the TGI (IGROV1 ovarian) was 10.7 µM, the TGI (OVCAR-5 ovarian) was 25.2 µM and the TGI (786-0 renal) was 4.22 µM. The TGI (UACC-62 melanoma) was 21.7 µM, the TGI (TK-10 renal) was 4.55 µM and the TGI (HT29 colon) was 10.9 µM. The TGI (SK-MEL-2 melanoma) was 4.28 µM, the TGI (UACC-257 melanoma) was 3.51 µM and the TGI (CCRF-CEM leukemia) was 1.31 µM. It also gave a TGI (M14 melanoma) of 6.61 µM, a TGI (KM12 colon) of 9.87 µM and a TGI (HCT-15 colon) of 25.9 µM. It also gave a TGI (NCI-H23 lung) of 4.05 µM, a TGI (COLO 205 colon) of 7.14 µM and a TGI (ACHN renal) of 9.21 µM. For the same compound, the TGI (HL-60(TB) leukemia) was 4.53 µM, the TGI (RXF 393 renal) was 9.33 µM and the TGI (NCI-H226 lung) was 28.7 µM. The TGI (PC-3 prostate) was 2.9 µM, the TGI (SF-295 CNS) was 12.4 µM and the TGI (OVCAR-3 ovarian) was 4.56 µM. It also gave a TGI (SN12C renal) of 13.8 µM, a TGI (HOP-62 NSCLC) of 17.2 µM and a TGI (K-562 leukemia) of 4.17 µM. The TGI (SF-268 CNS) was 18.3 µM, the TGI (UO-31 renal) was 15.2 µM and the TGI (HS 578T breast) was 12 µM. The TGI (DU-145 prostate) was 15.1 µM, the TGI (OVCAR-8 ovarian) was 12.8 µM and the TGI (SK-MEL-5 melanoma) was 6.17 µM. For the same compound, the TGI (U251 CNS) was 2.61 µM, the TGI (HOP-92 NSCLC) was 8.45 µM and the TGI (NCI/ADR-RES ovarian) was 22.2 µM. For the same compound, the TGI (EKVX NSCLC) was 18.6 µM, the TGI (NCI-H460 lung) was 1.58 µM and the TGI (OVCAR-4 ovarian) was 15.2 µM. For the same compound, the TGI (SW-620 colon) was 9.18 µM, the TGI (MDA-MB-435) was 3 µM and the TGI (HCT-116 colon) was 10.7 µM. For the same compound, the TGI (MDA-MB-231 breast) was 2.72 µM, the TGI (SK-OV-3 ovarian) was 17.9 µM and the TGI (MOLT-4 leukemia) was 4.04 µM. The TGI (CAKI-1 renal) was 14.6 µM, the TGI (MDA-N) was 5.27 µM and the TGI (MCF7 breast) was 3.79 µM. It also gave a TGI (A549 NSCLC) of 13.3 µM.
